Like-named read-outs stand apart in the source and are kept apart here.
Legend:
Assay type in all cases: binding
[1] = biological target: T1, mutant protein DAPKdel (ΔS52–S57) (Homo sapiens, UniProt P53355, DEL52-57); test: Fluorescence polarization titration of the fluorescent probe with DAPKdel
T1 construct: encoding the DAPK catalytic domain (DAPKwt, open reading frame residues 1–285) or the mutant protein DAPKdel (ΔS52–S57); Strep-tag (pASK-IBA3 vector; purified on streptactin resin) (C); made in house; host or cells: Escherichia coli DH5α
Procedure: (§1) Fluorescence polarization assays were performed using a Victor 3 apparatus (Perkin-Elmer Waltham, MA). The Lissamine Rhodamine B peptides based library (UMR 7200 CNRS, Strasbourg, France, Patent WO/2006/003330 [14]) was diluted in the assay buffer (50 mM HEPES, 150 mM KCl, 1 mM MgCl2, pH 7.5) to a working concentration of 0.2 µM. 15 µl of these dilutions were transferred to each well of the assay plate (Corning Costar 96-well black polystyrene plates, Model 3686, Corning, Acton, MA). All pipetting in HTS was performed on a Biomek® 2000 (Beckman Coulter, Fullerton, CA). Fluorescent polarization degrees (mFP) were measured at an excitation and emission wavelength of 530 and 610 nm, respectively. 15 µl of the assay buffer with DAPK, at a concentration of 4 µM, were added to each well. For each plate, background correction was performed with blank control wells containing no compounds.
(§2) All titration measurements were performed on a FlexStation 3 (Molecular Devices Union City, CA). The other experimental conditions were described in section “HTS of fluorescent peptides based library”. A twofold dilution cascade of the protein between 200 µM and 0.8 µM was prepared and 10 µl of these solutions were dispatched in 96-well assay plates. 10 µl of the probe solution (0.2 µM of CHPO 187-3-H11-para in assay buffer) were added to the wells and fluorescent polarization was recorded as specified before. Subsequently, 1 µl of concentrated ATP, ADP or substrate peptide (Tocris Bristol, UK) in assay buffer with 0.1 µM of the fluorescent probe was added to the wells, in order to subsequently obtain the following final concentrations of ATP, ADP or substrate peptide: 0.4, 0.8, 1.6, 3.2, 6.3, 12.5, 25, 50, and 1000 µM (the highest concentration was not performed for the peptide).
(§3) Titrations followed the same protocol as described under “ATP, ADP and substrate peptide titrations”, but under buffer conditions analogous to the ones listed under “nano-ESI-MS for the study of non-covalent complexes”. For investigations of the monomeric and the dimeric forms, NH4Ac concentrations were kept constant at 250 mM and 5 mM, respectively. To induce gradual monomerization of DAPK catalytic core, the NH4Ac concentration was stepwise augmented (5, 10, 25, 50, 100 and 250 mM) by the addition of a concentrated NH4Ac stock solution (1 M).

[2] = biological target: T2, DAPK catalytic domain (DAPKwt, residues 1–285) (Homo sapiens, UniProt P53355); test: Fluorescence polarization titration of the fluorescent probe with DAPKwt
T2 construct: encoding the DAPK catalytic domain (DAPKwt, open reading frame residues 1–285); Strep-tag (pASK-IBA3 vector; purified on streptactin resin) (C); made in house; host or cells: Escherichia coli DH5α
Procedure: as §1, §2, §3

[3] = biological target: T3, DAPK catalytic domain (DAPKwt) (Homo sapiens, UniProt P53355); test: Fluorescence polarization titration of fluorophore labeled ATP with DAPKwt; settings: pH 8.8, labeled ATP 0.1 µM
T3 construct: encoding the DAPK catalytic domain (DAPKwt, open reading frame residues 1–285); Strep-tag (pASK-IBA3 vector; purified on streptactin resin) (C); made in house; host or cells: Escherichia coli DH5α
Procedure: as §3
To determine the Kd values of γ-[6-Aminohexyl]-ATP-Atto495 (Jena Bioscience, Jena, Germany) its concentration was set to 0.1 µM, while the rest of the conditions were kept identical to the ones described above. Fluorescence polarization was recorded at an excitation and emission wavelength of 493 nm and 520 nm respectively.

T1 sequence (P53355 with tags, fused parts or gaps DEL52-57): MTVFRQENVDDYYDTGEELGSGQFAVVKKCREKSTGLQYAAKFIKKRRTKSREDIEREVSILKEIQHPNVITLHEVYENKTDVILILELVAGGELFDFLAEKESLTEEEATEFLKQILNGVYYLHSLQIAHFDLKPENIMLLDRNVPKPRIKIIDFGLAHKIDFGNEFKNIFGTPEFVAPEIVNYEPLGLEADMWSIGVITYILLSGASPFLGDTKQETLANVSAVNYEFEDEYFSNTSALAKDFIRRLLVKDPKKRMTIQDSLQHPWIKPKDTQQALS
T2 sequence (P53355 1-285): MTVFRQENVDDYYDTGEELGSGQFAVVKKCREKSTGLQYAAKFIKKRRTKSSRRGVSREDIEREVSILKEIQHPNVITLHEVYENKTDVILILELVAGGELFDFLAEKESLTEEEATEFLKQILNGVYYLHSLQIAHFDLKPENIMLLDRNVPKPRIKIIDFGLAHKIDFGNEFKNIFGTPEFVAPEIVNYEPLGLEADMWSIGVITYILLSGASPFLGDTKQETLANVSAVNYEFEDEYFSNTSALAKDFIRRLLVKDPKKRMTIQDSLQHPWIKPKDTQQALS
T3 sequence (P53355 1-285): as above

| Molecule | Kd ([1]; 5 mM NH4Ac, pH 8.8) | Kd ([1]; 250 mM NH4Ac, pH 8.8) | Kd ([1]; HEPES buffer pH 7.5, absence of ATP or ADP) | Kd ([1]; HEPES buffer pH 7.5, presence of ADP, ratio to DAPKdel higher than two) | Kd ([1]; HEPES buffer pH 7.5, presence of ATP, ratio to DAPKdel higher than two) | Kd ([2]; 5 mM NH4Ac, pH 8.8, conditions favoring the dimer, probe 0.1 µM) | Kd ([2]; 50 mM HEPES, 150 mM KCl, 1 mM MgCl2, pH 7.5, absence of ATP or ADP) | Kd ([2]; 250 mM NH4Ac, pH 8.8, conditions favoring the monomer, probe 0.1 µM) | Kd ([2]; HEPES buffer pH 7.5, ATP or ADP to DAPK ratios higher than two (maximal effect)) | Kd ([3]; 5 mM NH4Ac, read-out: Kd of the labeled ATP for the DAPKwt dimer) | Kd ([3]; 250 mM NH4Ac, read-out: Kd of the labeled ATP for the DAPKwt monomer) |
| --- | --- | --- | --- | --- | --- | --- | --- | --- | --- | --- | --- |
| CCN(CC)c1ccc2c(-c3ccc(S(=O)(=O)NCCC(=O)N[C@@H](CCCNC(=N)N)C(=O)N[C@@H](Cc4ccc5ccccc5c4)C(=O)N[C@@H](CCCN)C(N)=O)cc3S(=O)(=O)[O-])c3ccc(=[N+](CC)CC)cc-3oc2c1 [CHPO 187-3-H11-para] | 3.4 µM | 5.5 µM | 20 µM | 33 µM | 28 µM | 16.5 ± 1.2 µM | 30.9 ± 2.8 µM | 1.5 ± 0.2 µM | 6.4 ± 0.54 µM | – | – |
| γ-[6-Aminohexyl]-ATP-Atto495 | – | – | – | – | – | – | – | – | – | 3.98 ± 0.22 µM | 0.29 ± 0.011 µM |
